As a reminder, the pIC50 is the negative decadic logarithm of the IC50, by convention in mol/L.

pIC50: −log10 of the molar value.

For the assay, the target named is T1, Recombinant human MMP12 catalytic domain (Homo sapiens, UniProt P39900).
T1 construct: Recombinant human MMP12 catalytic domain; made in house
T1 sequence (P39900 106-263 limits assumed): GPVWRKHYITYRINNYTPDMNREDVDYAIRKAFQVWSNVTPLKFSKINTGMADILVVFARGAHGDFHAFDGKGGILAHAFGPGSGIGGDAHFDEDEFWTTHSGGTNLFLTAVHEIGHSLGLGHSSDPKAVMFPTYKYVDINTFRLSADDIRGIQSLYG
In words: Isolated enzyme assay (MMP12 enzyme assay). The class given is biochemical. The settings on record: fluorogenic substrate Mac-Pro-Cha-Gly-Nva-His-Ala-Dpa-NH2, 60 minutes at room temperature, pH 7.3. Here is the method:
Recombinant human MMP12 catalytic domain may be expressed and purified as described by Parkar A. A. et al, (2000), Protein Expression and Purification, 20:152. The purified enzyme can be used to monitor inhibitors of activity as follows: MMP12 (50 ng/ml final concentration) is incubated for 60 minutes at room temperature with the synthetic substrate Mac-Pro-Cha-Gly-Nva-His-Ala-Dpa-NH2 in assay buffer (0.1M “Tris-HCl” (trade mark) buffer, pH 7.3 containing 0.1M NaCl, 20 mM CaCl2, 0.020 mM ZnCl and 0.05% (w/v) “Brij 35 ” (trade mark) detergent) in the presence (5 concentrations) or absence of inhibitors. Activity is determined by measuring the fluorescence at λex 320 nm and λem 405 nm. Percent inhibition is calculated as follows: % Inhibition is equal to the [Fluorescenceplus inhibitor−Fluorescencebackground] divided by the [Fluorescenceminus inhibitor−Fluorescenebackground].
For the compound `O=C(CC1NC(=O)NC1=O)NCCc1ccc(-c2ccc(F)cc2)cc1` (stereo not shown) [Example 1, 2-(2,5-Dioxoimidazolidin-4-yl)-N-[2-(4′-fluoro-biphenyl-4-yl)-ethyl]-acetamide], the pIC50 was 7.66.

In the case of `N#Cc1ccc(-c2ccc(CCNC(=O)CC3NC(=O)NC3=O)cc2)cc1` (stereo not shown) [Example 2, N-[2-(4′-Cyano-biphenyl-4-yl)-ethyl]-2-(2,5-dioxoimidazolidin-4-yl)-acetamide], the pIC50 is 8.15.

For the compound `O=C(CC1NC(=O)NC1=O)NCCc1ccc(-c2ccccc2)cc1` (stereo not shown) [Example 5, N-(2-Biphenyl-4-yl-ethyl)-2-(2,5-dioxoimidazolidin-4-yl)-acetamide], the pIC50 was 7.49.

Turning to `O=C(CC1NC(=O)NC1=O)NCCc1ccc(-c2cccs2)cc1` (stereo not shown) [Example 14, 2-(2,5-Dioxoimidazolidin-4-yl)-N-[2-(4-thiophen-2-yl-phenyl)ethyl]-acetamide], the pIC50 is 8.22.

On to `O=C(CC1NC(=O)NC1=O)NCCc1ccc(-c2cc(Cl)cc(Cl)c2)cc1` (stereo not shown) [Example 21, N-[2-(3′,5′-Dichloro-biphenyl-4-yl)ethyl]-2-(2,5-dioxoimidazolidin-4-yl)-acetamide], for which the pIC50 was 8.10.

Turning to `Cc1cccc(-c2ccc(CCNC(=O)CC3NC(=O)NC3=O)cc2)c1` (stereo not shown) [Example 22, 2-(2,5-Dioxoimidazolidin-4-yl)-N-[2-(3′-methyl-biphenyl-4-yl)ethyl]-acetamide], the pIC50 was 7.82.

For `O=C(CC1NC(=O)NC1=O)NCCc1ccc(-c2cc3ccccc3o2)cc1` (stereo not shown) [Example 23, N-[2-(4-Benzofuran-2-yl-phenyl)ethyl]-2-(2,5dioxoimidazolidin-4-yl)-acetamide], the pIC50 was 8.22.

On to `COc1cccc(-c2ccc(CCNC(=O)CC3NC(=O)NC3=O)cc2)c1` (stereo not shown) [Example 24, 2-(2,5-Dioxoimidazolidin-4-yl)-N-[2-(3′-methoxy-biphenyl-4-yl)ethyl]-acetamide], for which the pIC50 was 8.40.

Regarding `CC(=O)c1ccc(-c2ccc(CCNC(=O)CC3NC(=O)NC3=O)cc2)cc1` (stereo not shown) [Example 26, N-[2-(4′-Acetyl-biphenyl-4-yl)ethyl]-2-(2,5-dioxoimidazolidin-4-yl)-acetamide], the pIC50 is 7.77.

On to `O=C(CC1NC(=O)NC1=O)NCCc1ccc(-c2cc3ccccc3s2)cc1` (stereo not shown) [Example 27, N-[2-(4-Benzo[b]thiophen-2-yl-phenyl)ethyl]-2-(2,5-dioxoimidazolidin-4-yl)-acetamide], for which the negative logarithm of the IC50 (pIC50) is 8.30.
